According to ChEMBL document CHEMBL1154443, “In vivo studies of 5-arylethenylbenzofuroxans in acute murine models of Chagas' disease” (Eur J Med Chem, 2008):
Calls of active or inactive are those of the source. No cut-off for these calls is given here.

What was measured:
Trypanosoma cruzi [1] = assay: Antitrypanosomal activity against Trypanosoma cruzi Colombiana infected Swiss mouse assessed as reduction in circulating trypomastigotes antibody level at 120 mg/kg/day, po after 44 days postinfection; format: functional, organism-based
Trypanosoma cruzi [2] = assay: Antitrypanosomal activity against Trypanosoma cruzi Tulahuen 2 infected Swiss mouse assessed as prevention of liver congestion at 120 mg/kg/day, po; format: functional, organism-based
[3] = Toxicity against Trypanosoma cruzi Tulahuen 2 infected Swiss mouse assessed as mouse survival at 120 mg/kg/day, po after 25 days; format: organism-based; parameters: route oral; conditions: in vivo, read-out: Activity
Trypanosoma cruzi [4] = assay: Antitrypanosomal activity against Trypanosoma cruzi Colombiana infected Swiss mouse assessed as reduction in circulating trypomastigotes antibody level at 120 mg/kg/day, po after 90 days postinfection; format: functional, organism-based
Trypanosoma cruzi [5] = assay: Antitrypanosomal activity against Trypanosoma cruzi Colombiana infected Swiss mouse assessed as prevention of heart inflammatory infiltrates at 120 mg/kg/day, po; format: functional, organism-based
Trypanosoma cruzi [6] = assay: Antitrypanosomal activity against Trypanosoma cruzi Tulahuen 2 infected Swiss mouse assessed as prevention of muscle inflammatory infiltrates at 120 mg/kg/day, po; format: functional, organism-based; conditions: Muscle tissue
Trypanosoma cruzi [7] = assay: Antitrypanosomal activity against Trypanosoma cruzi Colombiana infected Swiss mouse assessed as prevention of skeletal muscle inflammatory infiltrates at 120 mg/kg/day, po; format: functional, organism-based; conditions: Muscle tissue
[8] = Toxicity against Trypanosoma cruzi Colombiana infected Swiss mouse assessed as mouse survival at 120 mg/kg/day, po after 25 days; format: organism-based; parameters: route oral; conditions: in vivo, read-out: Activity
Trypanosoma cruzi [9] = assay: Antitrypanosomal activity against Trypanosoma cruzi Colombiana infected Swiss mouse assessed as prevention of liver congestion at 120 mg/kg/day, po; format: functional, organism-based
Trypanosoma cruzi [10] = assay: Antitrypanosomal activity against Trypanosoma cruzi Tulahuen 2 infected Swiss mouse assessed as prevention of heart inflammatory infiltrates at 120 mg/kg/day, po; format: functional, organism-based
Trypanosoma cruzi [11] = assay: Antitrypanosomal activity against Trypanosoma cruzi Tulahuen 2 infected Swiss mouse assessed as prevention of muscle inflammatory infiltrates at 200 mg/kg/day, po; format: functional, organism-based; conditions: Muscle tissue
Trypanosoma cruzi [12] = assay: Antitrypanosomal activity against Trypanosoma cruzi Tulahuen 2 infected Swiss mouse assessed as prevention of liver congestion at 200 mg/kg/day, po; format: functional, organism-based
Trypanosoma cruzi [13] = assay: Antitrypanosomal activity against Trypanosoma cruzi Tulahuen 2 infected Swiss mouse assessed as reduction in circulating trypomastigotes antibody level at 200 mg/kg/day, po after 60 days postinfection; format: functional, organism-based
Trypanosoma cruzi [14] = assay: Antitrypanosomal activity against Trypanosoma cruzi Tulahuen 2 infected Swiss mouse assessed as prevention of heart inflammatory infiltrates at 200 mg/kg/day, po; format: functional, organism-based
Trypanosoma cruzi [15] = assay: Antitrypanosomal activity against Trypanosoma cruzi Tulahuen 2 infected Swiss mouse assessed as reduction in circulating trypomastigotes antibody level at 200 mg/kg/day, po after 90 days postinfection; format: functional, organism-based
Trypanosoma cruzi [16] = assay: Antitrypanosomal activity against Trypanosoma cruzi Tulahuen 2 infected Swiss mouse assessed as reduction in circulating trypomastigotes antibody level at 120 mg/kg/day, po after 90 days postinfection; format: functional, organism-based
Trypanosoma cruzi [17] = assay: Antitrypanosomal activity against Trypanosoma cruzi Tulahuen 2 infected Swiss mouse assessed as reduction in circulating trypomastigotes antibody level at 120 mg/kg/day, po after 60 days postinfection; format: functional, organism-based
Trypanosoma cruzi [18] = assay: Antitrypanosomal activity against Trypanosoma cruzi Argentinian isolate infected Swiss mouse assessed as prevention of skeletal muscle inflammatory infiltrates at 60 mg/kg/day, po; format: functional, organism-based; conditions: Muscle tissue
Mus musculus [19] = assay: Toxicity against Trypanosoma cruzi infected CD1 mouse assessed as effect on liver histology at 300 mg/kg, ip; format: organism-based; parameters: dose 300 mg/kg, route intraperitoneal; conditions: in vivo
Mus musculus [20] = assay: Toxicity against Trypanosoma cruzi infected CD1 mouse assessed as effect on kidney histology at 450 mg/kg, po; format: organism-based; parameters: dose 450 mg/kg, route oral; conditions: in vivo
Trypanosoma cruzi [21] = assay: Antitrypanosomal activity against Trypanosoma cruzi Argentinian isolate infected Swiss mouse assessed as prevention of liver congestion at 60 mg/kg/day, po; format: functional, organism-based
Trypanosoma cruzi [22] = assay: Antitrypanosomal activity against Trypanosoma cruzi Uruguayan isolate infected CD1 mouse assessed as suppression of parasitemia at 60 mg/kg/day, po after 17 day postinfection; format: functional, organism-based
Mus musculus [23] = assay: Toxicity against Trypanosoma cruzi infected CD1 mouse assessed as effect on kidney histology at 300 mg/kg, ip; format: organism-based; parameters: dose 300 mg/kg, route intraperitoneal; conditions: in vivo
Trypanosoma cruzi [24] = assay: Antitrypanosomal activity against Trypanosoma cruzi Argentinian isolate infected Swiss mouse assessed as inhibition of heart amastigote nests at 60 mg/kg/day, po; format: functional, organism-based
Trypanosoma cruzi [25] = assay: Antitrypanosomal activity against Trypanosoma cruzi Argentinian isolate infected Swiss mouse assessed as inhibition of skeletal muscle amastigote nests at 60 mg/kg/day, po; format: functional, organism-based; conditions: Muscle tissue
Mus musculus [26] = assay: Toxicity against Trypanosoma cruzi infected CD1 mouse assessed as effect on heart histology at 450 mg/kg, po; format: organism-based; parameters: dose 450 mg/kg, route oral; conditions: in vivo
Trypanosoma cruzi [27] = assay: Antitrypanosomal activity against Trypanosoma cruzi Tulahuen 2 infected Swiss mouse assessed as suppression of parasitemia at 60 mg/kg/day, po; format: functional, organism-based
Trypanosoma cruzi [28] = assay: Antitrypanosomal activity against Trypanosoma cruzi Tulahuen 2 infected Swiss mouse assessed as suppression of parasitemia at 120 mg/kg/day, po; format: functional, organism-based
Mus musculus [29] = assay: Toxicity against Trypanosoma cruzi infected CD1 mouse assessed as effect on liver histology at 450 mg/kg, po; format: organism-based; parameters: dose 450 mg/kg, route oral; conditions: in vivo
Trypanosoma cruzi [30] = assay: Antitrypanosomal activity against Trypanosoma cruzi Argentinian isolate infected Swiss mouse assessed as prevention of heart inflammatory infiltrates at 60 mg/kg/day, po; format: functional, organism-based
Trypanosoma cruzi [31] = assay: Antitrypanosomal activity against Trypanosoma cruzi Argentinian isolate infected Swiss mouse assessed as suppression of parasitemia at 60 mg/kg/day, po; format: functional, organism-based
Mus musculus [32] = assay: Toxicity against Trypanosoma cruzi infected CD1 mouse assessed as effect on heart histology at 300 mg/kg, ip; format: organism-based; parameters: dose 300 mg/kg, route intraperitoneal; conditions: in vivo

| SMILES | Activity (Trypanosoma cruzi [1]) | Activity (Trypanosoma cruzi [2]) | survival at 600 h [3] [%] | Activity (Trypanosoma cruzi [4]) | Activity (Trypanosoma cruzi [5]) | Activity (Trypanosoma cruzi [6]) | Activity (Trypanosoma cruzi [7]) | survival at 600 h [8] [%] | Activity (Trypanosoma cruzi [9]) | Activity (Trypanosoma cruzi [10]) | Activity (Trypanosoma cruzi [18]) | Activity (Mus musculus [19]) | Activity (Mus musculus [20]) | Activity (Trypanosoma cruzi [21]) | Activity (Mus musculus [23]) | Activity (Trypanosoma cruzi [24]) | Activity (Trypanosoma cruzi [25]) | Activity (Mus musculus [26]) | Activity (Mus musculus [29]) | Activity (Trypanosoma cruzi [30]) | other results |
| --- | --- | --- | --- | --- | --- | --- | --- | --- | --- | --- | --- | --- | --- | --- | --- | --- | --- | --- | --- | --- | --- |
| [O-][n+]1onc2ccc(/C=C\c3ccc4c(c3)OCO4)cc21 | inactive | Active | 100 | Active | Active | Active | Active | 100 | Active | Active |  |  |  |  |  |  |  |  |  |  |  |
| O=C(Cn1ccnc1[N+](=O)[O-])NCc1ccccc1 [BENZNIDAZOLE] | Active |  |  |  | Active |  | Active | 100 | Active |  |  |  |  |  |  |  |  |  |  |  | Activity (Trypanosoma cruzi [11]): Active; Activity (Trypanosoma cruzi [12]): Active; Activity (Trypanosoma cruzi [13]): Active; Activity (Trypanosoma cruzi [14]): Active; Activity (Trypanosoma cruzi [15]): Active |
| [O-][n+]1onc2ccc(/C=C/c3ccc4c(c3)OCO4)cc21 | inactive | Active | 100 |  | Active | Active | Active | 100 | Active | Active |  |  |  |  |  |  |  |  |  |  | Activity (Trypanosoma cruzi [16]): Active; Activity (Trypanosoma cruzi [17]): Active |
| [O-][n+]1onc2ccc(/C=C/c3ccccc3)cc21 | inactive | Active | 100 | Active | Active | Active | Active | 100 | Active | Active | Active | Non-toxic | Non-toxic | Active | Non-toxic | Active | Active | Non-toxic | Non-toxic | Active | Activity (Trypanosoma cruzi [22]): Active; Activity (Trypanosoma cruzi [27]): Active; Activity (Trypanosoma cruzi [28]): Active; Activity (Trypanosoma cruzi [31]): Active; Activity (Mus musculus [32]): Non-toxic |
| CC1CS(=O)(=O)CCN1/N=C/c1ccc([N+](=O)[O-])o1 (configuration not stated) [NIFURTIMOX] |  |  |  |  |  |  |  |  |  |  | Active | Toxic | Toxic | Active | Non-toxic | Active | Active | Non-toxic | Toxic | Active | Activity (Mus musculus [32]): Non-toxic |
